Assay [1] deals with T1, Genome polyprotein (dengue virus type 2, UniProt P29990). The assay is classed as functional, Thailand/16681/1984.
Assay [2] deals with T1, Genome polyprotein. The assay is classed as functional, Thailand/16681/1984. The source holds these as a separate data set.

IC50 data for 64 compounds are collected here from ChEMBL document CHEMBL5604063, “ASAP - DENV-2 NS2B-NS3 protease fluorescence dose response” (2024).

A value given as a limit tells only on which side of the number the result lay.

The IC50 is the concentration at which inhibition is half-maximal. Low values mean greater potency, high ones weaker potency.

T1 sequence (P29990 1346-1475 limits assumed): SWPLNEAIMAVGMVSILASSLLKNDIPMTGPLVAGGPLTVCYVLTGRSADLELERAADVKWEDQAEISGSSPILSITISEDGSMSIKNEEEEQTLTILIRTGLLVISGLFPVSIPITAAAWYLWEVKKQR
T1 sequence (P29990 1476-2093 limits assumed): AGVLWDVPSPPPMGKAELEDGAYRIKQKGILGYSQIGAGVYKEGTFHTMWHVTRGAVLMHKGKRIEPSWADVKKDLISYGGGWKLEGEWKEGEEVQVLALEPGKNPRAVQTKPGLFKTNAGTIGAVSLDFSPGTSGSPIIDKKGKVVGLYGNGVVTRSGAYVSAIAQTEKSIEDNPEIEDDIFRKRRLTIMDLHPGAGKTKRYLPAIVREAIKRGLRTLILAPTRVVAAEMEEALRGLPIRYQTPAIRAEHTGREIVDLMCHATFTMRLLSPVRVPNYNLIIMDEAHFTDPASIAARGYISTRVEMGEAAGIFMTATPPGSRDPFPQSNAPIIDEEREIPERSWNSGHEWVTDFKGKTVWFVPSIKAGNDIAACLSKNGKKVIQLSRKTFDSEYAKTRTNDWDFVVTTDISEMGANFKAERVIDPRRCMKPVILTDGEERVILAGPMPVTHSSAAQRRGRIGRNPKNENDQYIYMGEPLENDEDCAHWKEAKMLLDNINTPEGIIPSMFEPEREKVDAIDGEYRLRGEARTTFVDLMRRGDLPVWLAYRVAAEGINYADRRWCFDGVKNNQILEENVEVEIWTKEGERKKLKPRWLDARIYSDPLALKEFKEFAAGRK

`NCCCc1cccc(NC(=O)c2cc(Cl)cc(NC(=O)OCc3ccccc3)c2)n1`: the results for the IC50 on Genome polyprotein [1] and on Genome polyprotein [2] were 62.1 µM and > 100 µM, respectively.
For the compound `NCc1cccc(NC(=O)[C@@H](NC(=O)OCc2ccccc2)C2CCN(S(=O)(=O)C3CCCC3)CC2)c1`, the IC50 at Genome polyprotein [1] is > 99.5 µM; against Genome polyprotein [2], > 100 µM.
The corresponding values for `NCc1cccc(NC(=O)c2cc(NC(=O)OCc3ccccc3)ccc2C(F)(F)F)c1` are > 99.5 µM and > 100 µM.
`NCc1cccc(NC(=O)c2cc(Cl)cc(-n3cccc3)c2)c1`: the IC50 against Genome polyprotein [1] is > 99.5 µM; on Genome polyprotein [2] it was > 100 µM.
Take `N#Cc1csc(CN2CCC([C@H](NC(=O)OCc3ccccc3)C(=O)Nc3cccc(CN)c3)CC2)c1`: the results for the IC50 on Genome polyprotein [1] and against Genome polyprotein [2] were > 99.5 µM and > 100 µM, respectively.
As for `NCc1cccc(NC(=O)[C@@H](NC(=O)OCc2ccccc2)C2CCN(C(=O)C3CC3)CC2)c1`, the IC50 on Genome polyprotein [1] was > 99.5 µM; at Genome polyprotein [2], > 100 µM.
`NCc1cccc(NC(=O)[C@H](NC(=O)OCc2ccccc2)C2CCN(C(=O)[C@H]3C[C@H](O)C3)CC2)c1`: the IC50 was > 99.5 µM against Genome polyprotein [1] and > 100 µM against Genome polyprotein [2].
As for `N#CC1(S(=O)(=O)N2CCC([C@H](NC(=O)OCc3ccccc3)C(=O)Nc3cccc(CN)c3)CC2)CCC1`, the IC50 on Genome polyprotein [1] was 81.8 µM; at Genome polyprotein [2], > 100 µM.
For `NCc1cccc(NC(=O)c2cc(Cl)cc(OC3CC3)c2)c1`, the IC50 is > 99.5 µM against Genome polyprotein [1] and > 100 µM at Genome polyprotein [2].
Turning to `NCc1cccc(NC(=O)c2cc(Cl)cc(N3CCCC3)c2)c1`, the IC50 against Genome polyprotein [1] is > 99.5 µM; on Genome polyprotein [2], > 100 µM.
`C[C@@H]1CNC[C@H]1c1ccc(NC(=O)c2ccc3c(c2)SCCN3)cc1`: the results for the IC50 at Genome polyprotein [1] and on Genome polyprotein [2] were > 99.5 µM and > 100 µM, respectively.
On to `O=C(Nc1cc(Cl)cc(C(=O)NCC2(CO)CCNCC2)c1)OCc1ccccc1`, for which the IC50 against Genome polyprotein [1] is > 99.5 µM; on Genome polyprotein [2], > 100 µM.
With `N#Cc1ccc(N2CCN(Cc3c[nH]c4ccccc34)CC2)cc1`, the IC50 against Genome polyprotein [1] was > 99.5 µM; on Genome polyprotein [2], > 100 µM.
The corresponding values for `NCc1cccc(NC(=O)[C@@H](NC(=O)OCc2ccccc2)C2CCN(Cc3cccnc3)CC2)c1` are > 99.5 µM and > 100 µM.
Take `c1ccc(-c2[nH]c3ccccc3c2CN2CCC(c3cscn3)CC2)cc1`: the IC50 against Genome polyprotein [1] was > 99.5 µM; against Genome polyprotein [2], > 100 µM.
Take `O=C(Nc1cc(Cl)cc(C(=O)Nc2ccc3c(c2)[C@H]2CC[C@H]3N2)c1)OCc1ccccc1`: the results for the IC50 against Genome polyprotein [1] and against Genome polyprotein [2] were 76.4 µM and > 100 µM, respectively.
As for `CSc1cc(F)c(C(=O)Nc2cccc(CN)c2)cc1NC(=O)OCc1ccccc1`, the IC50 was 84.2 µM against Genome polyprotein [1] and > 100 µM against Genome polyprotein [2].
As for `NCc1cccc(NC(=O)[C@H](NC(=O)OCc2ccccc2)C2CCN(C3CCCC3)CC2)c1`, the IC50 is > 99.5 µM on Genome polyprotein [1] and > 100 µM against Genome polyprotein [2].
As for `NCc1cccc(NC(=O)c2cc(Cl)ccc2-n2cncn2)c1`, the IC50 against Genome polyprotein [1] was > 99.5 µM; against Genome polyprotein [2], > 100 µM.
On the same counts, the results for `Cn1nnc(S(=O)(=O)N2CCC([C@H](NC(=O)OCc3ccccc3)C(=O)Nc3cccc(CN)c3)CC2)n1` are > 99.5 µM and > 100 µM.
In the case of `NCc1cccc(NC(=O)[C@H](NC(=O)OCc2ccccc2)C2CCN(S(=O)(=O)c3ccccc3)CC2)c1`, the half-inhibitory concentration (IC50) against Genome polyprotein [1] was > 99.5 µM; against Genome polyprotein [2], > 100 µM.
On to `NCCc1nsc(NC(=O)c2cc(Cl)cc(NC(=O)OCc3ccccc3)c2)n1`, for which the IC50 on Genome polyprotein [1] is > 99.5 µM; at Genome polyprotein [2], > 100 µM.
Take `Cc1nnc(CN2CCC([C@H](NC(=O)OCc3ccccc3)C(=O)Nc3cccc(CN)c3)CC2)s1`: the results for the concentration for half-maximal inhibition (IC50) on Genome polyprotein [1] and against Genome polyprotein [2] were > 99.5 µM and > 100 µM, respectively.
As to `NCc1cccc(NC(=O)[C@@H](NC(=O)OCc2ccccc2)c2ccc(OCc3ccccn3)cc2)c1`, the IC50 at Genome polyprotein [1] was > 99.5 µM; at Genome polyprotein [2], > 100 µM.
With `COCc1cc(Cl)cc(C(=O)Nc2cccc(CN)c2)c1`, the IC50 was > 99.5 µM against Genome polyprotein [1] and > 100 µM against Genome polyprotein [2].
Take `Cn1nc(CCN)nc1NC(=O)c1cc(Cl)cc(NC(=O)OCc2ccccc2)c1`: the IC50 against Genome polyprotein [1] was > 99.5 µM; against Genome polyprotein [2], > 100 µM.
As to `C[C@H](N)c1cccc(NC(=O)c2cc(Cl)cc(NC(=O)OCc3ccccc3)c2)c1`, the IC50 was 68.6 µM against Genome polyprotein [1] and > 100 µM against Genome polyprotein [2].
Turning to `c1ccc(N2CCN(Cc3c[nH]c4ccccc34)CC2)nc1`, the IC50 is > 99.5 µM against Genome polyprotein [1] and > 100 µM against Genome polyprotein [2].
The corresponding values for `NCc1cccc(NC(=O)[C@@H](NC(=O)OCc2ccccc2)C2CCN(S(=O)(=O)Cc3cscn3)CC2)c1` are > 99.5 µM and > 100 µM.
`NCc1cccc(NC(=O)[C@H](NC(=O)OCc2ccccc2)c2ccc(OCc3ccncn3)cc2)c1`: the IC50 against Genome polyprotein [1] was 99.2 µM; at Genome polyprotein [2], > 100 µM.
The corresponding values for `Cn1ccnc1COc1cccc([C@H](NC(=O)OCc2ccccc2)C(=O)Nc2cccc(CN)c2)c1` are > 99.5 µM and > 100 µM.
For the compound `Cc1nnc(S(=O)(=O)N2CCC([C@H](NC(=O)OCc3ccccc3)C(=O)Nc3cccc(CN)c3)CC2)s1`, the IC50 is > 99.5 µM against Genome polyprotein [1] and > 100 µM on Genome polyprotein [2].
For the compound `NCc1cccc(NC(=O)c2cc(Cl)cc(N3CCCC3=O)c2)c1`, the IC50 at Genome polyprotein [1] was > 99.5 µM; at Genome polyprotein [2] it was > 100 µM.
As for `CN1CCC(COc2cccc([C@H](NC(=O)OCc3ccccc3)C(=O)Nc3cccc(CN)c3)c2)CC1`, the IC50 against Genome polyprotein [1] was > 99.5 µM; against Genome polyprotein [2], > 100 µM.
Turning to `NCc1cccc(NC(=O)c2cc(Cl)cc3c2OCCNC3)c1`, the IC50 against Genome polyprotein [1] is > 99.5 µM; against Genome polyprotein [2], > 100 µM.
The corresponding values for `Oc1cc(N2CCN(Cc3c[nH]c4ccccc34)CC2)ccn1` are > 99.5 µM and > 100 µM.
Turning to `O=C(Nc1cc(Cl)cc(C(=O)Nc2cccc3c2CNC3)c1)OCc1ccccc1`, the IC50 against Genome polyprotein [1] is > 99.5 µM; against Genome polyprotein [2] it was > 100 µM.
On the same counts, the results for `CN(C)Cc1csc(NC(=O)c2cc(Cl)cc(NC(=O)OCc3ccccc3)c2)n1` are > 99.5 µM and > 100 µM.
As to `NCc1cccc(NC(=O)[C@@H](NC(=O)OCc2ccccc2)C2CCN(S(=O)(=O)Cc3ncon3)CC2)c1`, the IC50 against Genome polyprotein [1] was > 99.5 µM; against Genome polyprotein [2] it was > 100 µM.
As to `NCc1cccc(NC(=O)c2nc(=O)cc(NC(=O)OCc3ccccc3)[nH]2)c1`, the figures for the IC50 against Genome polyprotein [1] and at Genome polyprotein [2] were > 99.5 µM and > 100 µM, respectively.
On the same counts, the results for `CNCc1cccc(NC(=O)c2cc(Cl)cc(NC(=O)OCc3ccccc3)c2)c1` are 80.5 µM and > 100 µM.
For the compound `NCc1cccc(NC(=O)[C@@H](NC(=O)OCc2ccccc2)C2CCN(C3CCOCC3)CC2)c1`, the values for the IC50 at Genome polyprotein [1] and against Genome polyprotein [2] were > 99.5 µM and > 100 µM, respectively.
In the case of `NCc1cccc(NC(=O)[C@H](NC(=O)OCc2ccccc2)c2ccc(OCCc3cscn3)cc2)c1`, the figures for the IC50 on Genome polyprotein [1] and against Genome polyprotein [2] were > 99.5 µM and > 100 µM, respectively.
Consider `Clc1ccc2c(CN3CCC(c4c[nH]c5ncccc45)CC3)c[nH]c2c1`, for which the IC50 on Genome polyprotein [1] was > 99.5 µM; against Genome polyprotein [2], > 100 µM.
`COCC(=O)N1CCC([C@@H](NC(=O)OCc2ccccc2)C(=O)Nc2cccc(CN)c2)CC1`: the IC50 on Genome polyprotein [1] was > 99.5 µM; on Genome polyprotein [2], > 100 µM.
In the case of `CN(C)Cc1cc(NC(=O)[C@H](NC(=O)OCc2ccccc2)c2ccc(OCc3ccccc3)cc2)sn1`, the concentration for half-maximal inhibition (IC50) on Genome polyprotein [1] is > 99.5 µM; on Genome polyprotein [2], > 100 µM.
Take `NCc1ccccc1Oc1ccc(S(=O)(=O)Nc2ccc(Cl)cc2C(=O)NCC(F)(F)F)cc1`: the IC50 was > 99.5 µM on Genome polyprotein [1] and > 100 µM against Genome polyprotein [2].
Regarding `CC(C)S(=O)(=O)N1CCC([C@@H](NC(=O)OCc2ccccc2)C(=O)Nc2cccc(CN)c2)CC1`, the IC50 against Genome polyprotein [1] was > 99.5 µM; on Genome polyprotein [2] it was > 100 µM.
Take `Cn1ccnc1C(=O)N1CCC([C@H](NC(=O)OCc2ccccc2)C(=O)Nc2cccc(CN)c2)CC1`: the figures for the half-maximal inhibitory concentration (IC50) against Genome polyprotein [1] and at Genome polyprotein [2] were > 99.5 µM and > 100 µM, respectively.
Take `CS(=O)(=O)N1CCC([C@@H](NC(=O)OCc2ccccc2)C(=O)Nc2cccc(CN)c2)CC1`: the IC50 on Genome polyprotein [1] is > 99.5 µM; at Genome polyprotein [2], > 100 µM.
For `O=C(Nc1cc(Cl)cc(C(=O)Nc2ccc3c(c2)CNCCO3)c1)OCc1ccccc1`, the IC50 was > 99.5 µM against Genome polyprotein [1] and > 100 µM against Genome polyprotein [2].
As for `NCc1cccc(NC(=O)[C@@H](NC(=O)OCc2ccccc2)c2ccc(OCCN3CCCCC3)cc2)c1`, the IC50 on Genome polyprotein [1] was > 99.5 µM; at Genome polyprotein [2] it was > 100 µM.
For the compound `CCCCS(=O)(=O)N1CCC([C@H](NC(=O)OCc2ccccc2)C(=O)Nc2cccc(CN)c2)CC1`, the IC50 at Genome polyprotein [1] is > 99.5 µM; against Genome polyprotein [2], 99 µM.
For the compound `NCc1cccc(NC(=O)[C@@H](NC(=O)OCc2ccccc2)c2ccc(OCc3cnccn3)cc2)c1`, the IC50 is > 99.5 µM at Genome polyprotein [1] and > 100 µM against Genome polyprotein [2].
As to `CSc1cc(Cl)cc(C(=O)Nc2cccc(CN)c2)c1`, the IC50 was > 99.5 µM against Genome polyprotein [1] and > 100 µM on Genome polyprotein [2].
With `CN1C(=O)C[C@H](C(=O)Nc2cccc(CN)c2)[C@H]1c1ccc(Cl)c(Cl)c1`, the IC50 is > 99.5 µM on Genome polyprotein [1] and > 100 µM against Genome polyprotein [2].
As to `NCc1cc(F)cc(NC(=O)c2cc(Cl)cc(NC(=O)OCc3ccccc3)c2)c1`, the IC50 is > 99.5 µM against Genome polyprotein [1] and > 100 µM at Genome polyprotein [2].
With `NCc1cccc(NC(=O)c2cc(Cl)ccc2OCC(F)(F)F)c1`, the values for the IC50 against Genome polyprotein [1] and against Genome polyprotein [2] were > 99.5 µM and > 100 µM, respectively.
Regarding `NCc1cccc(NC(=O)[C@H](NC(=O)OCc2ccccc2)C2CCN(CCc3ccccc3)CC2)c1`, the IC50 against Genome polyprotein [1] is > 99.5 µM; against Genome polyprotein [2] it was > 100 µM.
Turning to `Cn1ncc(CN2CCC([C@H](NC(=O)OCc3ccccc3)C(=O)Nc3cccc(CN)c3)CC2)n1`, the IC50 at Genome polyprotein [1] is > 99.5 µM; at Genome polyprotein [2], > 100 µM.
Turning to `NCc1cccc(NC(=O)[C@H](NC(=O)OCc2ccccc2)c2cccc(OCCn3cccn3)c2)c1`, the IC50 at Genome polyprotein [1] is > 99.5 µM; against Genome polyprotein [2] it was > 100 µM.
In the case of `NS(=O)(=O)c1cccc(N2CCN(Cc3c[nH]c4ccccc34)CC2)c1`, the IC50 against Genome polyprotein [1] is > 99.5 µM; against Genome polyprotein [2], > 100 µM.
Turning to `Cc1csc(N2CCN(Cc3c[nH]c4ccccc34)CC2)n1`, the results for the IC50 against Genome polyprotein [1] and on Genome polyprotein [2] were > 99.5 µM and > 100 µM, respectively.
Take `C[C@@H](N)c1cccc(NC(=O)c2cc(Cl)cc(NC(=O)OCc3ccccc3)c2)c1`: the 50% inhibitory concentration (IC50) against Genome polyprotein [1] is 81 µM; against Genome polyprotein [2], > 100 µM.
